Data published in patent US8759500B2, “Crystalline forms of a macrolide, and uses therefor” (Cempra Pharmaceuticals, Inc., priority 2010, dated 2014).
In brackets after ≈: the same amount, converted by molar mass.

Tests used:
[1] = Mean intrinsic dissolution studies; assay type: physicochemical
From the text: Mean intrinsic dissolution rates for exemplary batches of the two forms are shown in Table cC-2 for 3 batches of Form I (SD and % CV for one batch shown) and for Form II.

Dynamic vapor sorption = assay type: physicochemical
Method: The new physical form, Form I of CEM-101 is a crystalline form which may be described by its X-ray powder diffraction pattern. Peaks at approximate positions of about °2θ=8.8, 10.5, 13.2 and 18.6 are representative of this crystalline form. A more detailed analysis of the peaks is described in Tables 1-2 below. […] Water determination by Karl Fisher titration in typical lots is 0.6 to 1.1%. […] Form I of CEM-101 melts at about 200° C. by DSC analysis.
The new physical form, Form II of CEM-101 is a crystalline form which may be described by its X-ray powder diffraction pattern. Peaks at approximate positions of about °2θ=5.6, 7.9, 9.3, 11.7, 12.9 and 16.7 are representative of this crystalline form. A more detailed analysis of the peaks is described in Tables 3-4 below. Based on a single crystal X-ray determination and dynamic vapor sorption analysis, Form II appears to be a non-hygroscopic anhydrous crystalline form that melts at about 225° C. as a single endothermic event by DSC analysis. It is appreciated herein that non-hygroscopic solids, such as Form II described herein, may be advantageous in the preparation of pharmaceutical compositions. Such advantages include improved handling and stability properties in manufacturing, improved lot to lot quality control.

[2] = Stability of Form I and Form II under various storage conditions; assay type: physicochemical
From the text: In each case, the test material was first placed in Primary Packaging Material (LLDPE bag within a HMHDPE/LDPE/LDPE blend bag, and then heat sealed). The Primary Packaging Material was placed in Secondary Packaging Material (HDPE drum). All other impurities were less than 1% at each time point.

[3] = Aqueous solubility in water at indicated pH; settings: water at adjusted pH, 26 °C, thermodynamic from solid
[4] = Pharmacokinetic comparison of forms by dosing vehicle
[5] = Oral pharmacokinetics in Balb/c mice, single dose 20 or 100 mg/kg; settings: for AUCextrap: mean plasma; for AUC(0-inf) / AUC(0-t) / Cmax / Tmax / concentration at 0 h / concentration at 0.25 h / concentration at 0.5 h / concentration at 1 h / concentration at 2 h / concentration at 4 h / concentration at 6 h: Balb/c, mouse, plasma, po
Method: The doses were prepared as 2.0 mg/mL or 10.0 mg/mL in a vehicle of 0.5% (w/v) carboxymethyl cellulose in water and a dose volume of 10 mL/kg b.w. Blood samples were collected at various time points during the next 6 h post dose.

Mean intrinsic dissolution rate ([1]; 0.1N Hydrochloric Acid): 8.8 mg/min/cm^2 | Mean intrinsic dissolution rate ([1]; Acetate buffer, pH 4.5): 2.7 mg/min/cm^2 | Mean intrinsic dissolution rate ([1]; Phosphate buffer, pH 6.8): 0.01 mg/min/cm^2 | hygroscopicity (Dynamic vapor sorption): non-hygroscopic | Assay (on hydrous basis) ([2]; 2-8° C., 3 Month): 93.4% | Chromatographic Purity ([2]; 2-8° C., 3 Month): 96.0 | Water ([2]; 2-8° C., 3 Month): 1.24% | Assay (on hydrous basis) ([2]; 2-8° C., 6 Month): 93.6% | Chromatographic Purity ([2]; 2-8° C., 6 Month): 96.8 | Water ([2]; 2-8° C., 6 Month): 1.39% | 3-Ethynylaniline ([2]; 2-8° C., 9 Month): 0.01% | Assay (on hydrous basis) ([2]; 2-8° C., 9 Month): 93.3% | Chromatographic Purity ([2]; 2-8° C., 9 Month): 96.4 | Water ([2]; 2-8° C., 9 Month): 1.38% | 3-Ethynylaniline ([2]; 2-8° C., 12 Month): 0.12% | Assay (on hydrous basis) ([2]; 2-8° C., 12 Month): 93% | Chromatographic Purity ([2]; 2-8° C., 12 Month): 96.8 | Water ([2]; 2-8° C., 12 Month): 1.37% | Assay (on hydrous basis) ([2]; 2-8° C., Initial): 93.9% | Chromatographic Purity ([2]; 2-8° C., Initial): 97.0 | Water ([2]; 2-8° C., Initial): 1.01% | Assay (on hydrous basis) ([2]; 25° C./60% RH, 3 Month): 93.6% | Chromatographic Purity ([2]; 25° C./60% RH, 3 Month): 96.0% | Water ([2]; 25° C./60% RH, 3 Month): 1.16% | Assay (on hydrous basis) ([2]; 25° C./60% RH, 6 Month): 93.7% | Chromatographic Purity ([2]; 25° C./60% RH, 6 Month): 96.7% | Water ([2]; 25° C./60% RH, 6 Month): 1.42% | 3-Ethynylaniline ([2]; 25° C./60% RH, 9 Month): 0.04% | Assay (on hydrous basis) ([2]; 25° C./60% RH, 9 Month): 93.2% | Chromatographic Purity ([2]; 25° C./60% RH, 9 Month): 96.2% | Water ([2]; 25° C./60% RH, 9 Month): 1.45% | 3-Ethynylaniline ([2]; 25° C./60% RH, 12 Month): 0.11% | Assay (on hydrous basis) ([2]; 25° C./60% RH, 12 Month): 93.0% | Chromatographic Purity ([2]; 25° C./60% RH, 12 Month): 96.1% | Water ([2]; 25° C./60% RH, 12 Month): 1.48% | Assay (on hydrous basis) ([2]; 25° C./60% RH, Initial): 93.9% | Chromatographic Purity ([2]; 25° C./60% RH, Initial): 97.0% | Water ([2]; 25° C./60% RH, Initial): 1.01% | Assay (on hydrous basis) ([2]; 40° C./75% RH, 3 Month): 93.0% | Chromatographic Purity ([2]; 40° C./75% RH, 3 Month): 95.9% | Water ([2]; 40° C./75% RH, 3 Month): 1.24% | Assay (on hydrous basis) ([2]; 40° C./75% RH, 6 Month): 93.1% | Chromatographic Purity ([2]; 40° C./75% RH, 6 Month): 96.5% | Water ([2]; 40° C./75% RH, 6 Month): 1.62% | 3-Ethynylaniline ([2]; 40° C./75% RH, 9 Month): 0.02% | Assay (on hydrous basis) ([2]; 40° C./75% RH, 9 Month): 92.5% | Chromatographic Purity ([2]; 40° C./75% RH, 9 Month): 96.2% | Water ([2]; 40° C./75% RH, 9 Month): 1.51% | 3-Ethynylaniline ([2]; 40° C./75% RH, 12 Month): 0.05% | Assay (on hydrous basis) ([2]; 40° C./75% RH, 12 Month): 92.3% | Chromatographic Purity ([2]; 40° C./75% RH, 12 Month): 97.1% | Water ([2]; 40° C./75% RH, 12 Month): 1.56% | Assay (on hydrous basis) ([2]; 40° C./75% RH, Initial): 93.9% | Chromatographic Purity ([2]; 40° C./75% RH, Initial): 97.0% | Water ([2]; 40° C./75% RH, Initial): 1.01% | change in color of the test material ([2]; during the entire study, all storage conditions): no observed change in color | solubility at 6 h ([3]; pH 1.2, simulated gastric fluid): 3640 µg/mL (≈ 4310 µM) | solubility at 6 h ([3]; pH 4, aqueous buffer): 361 µg/mL (≈ 427 µM) | solubility at 6 h ([3]; pH 7.4, aqueous buffer): 305 µg/mL (≈ 361 µM) | solubility at 6 h ([3]; pH 9.2, aqueous buffer): 331 µg/mL (≈ 392 µM) | difference in measured pharmacokinetic parameters, including Cmax, Tmax, and AUC, among Form I and Form II ([4]; dosed in a vehicle in which the compound is present as a solid): no statistical difference | difference in measured pharmacokinetic parameters, including Cmax, Tmax, and AUC, among Form I and Form II ([4]; dosed in a vehicle in which the compound is well solubilized): no observed difference | AUCextrap ([5]; Female Balb/c mouse, 20 mg/kg oral, listed as CEM-101 Form II, 20 mg/kg): 12% | AUCextrap ([5]; Male Balb/c mouse, 20 mg/kg oral, listed as CEM-101 Form II, 20 mg/kg): 42% | AUCextrap ([5]; Male Balb/c mouse, 100 mg/kg oral): 33% | AUC(0-inf) ([5]; female, 20 mg/kg): 36000 ng·h/mL | AUC(0-t) ([5]; female, 20 mg/kg): 31600 ng·h/mL | Cmax ([5]; female, 20 mg/kg): 8800 ng/mL | Tmax ([5]; female, 20 mg/kg): 0.5 h | concentration at 0 h ([5]; female, 20 mg/kg): 0 ng/mL | concentration at 0.25 h ([5]; female, 20 mg/kg): 6200 ± 1600 ng/mL | concentration at 0.5 h ([5]; female, 20 mg/kg): 8800 ± 800 ng/mL | concentration at 1 h ([5]; female, 20 mg/kg): 7300 ± 900 ng/mL | concentration at 2 h ([5]; female, 20 mg/kg): 6100 ± 1000 ng/mL | concentration at 4 h ([5]; female, 20 mg/kg): 5500 ± 1700 ng/mL | concentration at 6 h ([5]; female, 20 mg/kg): 1300 ± 500 ng/mL | AUC(0-t) ([5]; female, 100 mg/kg): 55000 ng·h/mL | Cmax ([5]; female, 100 mg/kg): 10500 ng/mL | Tmax ([5]; female, 100 mg/kg): 4 h | concentration at 0 h ([5]; female, 100 mg/kg): 0 ng/mL | concentration at 0.25 h ([5]; female, 100 mg/kg): 7300 ± 900 ng/mL | concentration at 0.5 h ([5]; female, 100 mg/kg): 10500 ± 1400 ng/mL | concentration at 1 h ([5]; female, 100 mg/kg): 9600 ± 2200 ng/mL | concentration at 2 h ([5]; female, 100 mg/kg): 9500 ± 2200 ng/mL | concentration at 4 h ([5]; female, 100 mg/kg): 10200 ± 1000 ng/mL | concentration at 6 h ([5]; female, 100 mg/kg): 7800 ± 1100 ng/mL | AUC(0-inf) ([5]; male, 20 mg/kg): 49000 ng·h/mL | AUC(0-t) ([5]; male, 20 mg/kg): 29000 ng·h/mL | Cmax ([5]; male, 20 mg/kg): 6730 ng/mL | Tmax ([5]; male, 20 mg/kg): 0.5 h | concentration at 0 h ([5]; male, 20 mg/kg): 0 ng/mL | concentration at 0.25 h ([5]; male, 20 mg/kg): 4100 ± 800 ng/mL | concentration at 0.5 h ([5]; male, 20 mg/kg): 6700 ± 600 ng/mL | concentration at 1 h ([5]; male, 20 mg/kg): 5900 ± 800 ng/mL | concentration at 2 h ([5]; male, 20 mg/kg): 5600 ± 400 ng/mL | concentration at 4 h ([5]; male, 20 mg/kg): 4900 ± 1100 ng/mL | concentration at 6 h ([5]; male, 20 mg/kg): 2900 ± 600 ng/mL | AUC(0-inf) ([5]; male, 100 mg/kg): 99000 ng·h/mL | AUC(0-t) ([5]; male, 100 mg/kg): 66000 ng·h/mL | Cmax ([5]; male, 100 mg/kg): 10600 ng/mL | Tmax ([5]; male, 100 mg/kg): 4 h | concentration at 0 h ([5]; male, 100 mg/kg): 0 ng/mL | concentration at 0.25 h ([5]; male, 100 mg/kg): 6800 ± 700 ng/mL | concentration at 0.5 h ([5]; male, 100 mg/kg): 6900 ± 1100 ng/mL | concentration at 1 h ([5]; male, 100 mg/kg): 8700 ± 2700 ng/mL | concentration at 2 h ([5]; male, 100 mg/kg): 9300 ± 1200 ng/mL | concentration at 4 h ([5]; male, 100 mg/kg): 10600 ± 1400 ng/mL | concentration at 6 h ([5]; male, 100 mg/kg): 7200 ± 800 ng/mL
Compound: CC[C@H]1OC(=O)[C@@](C)(F)C(=O)[C@H](C)[C@@H](O[C@@H]2O[C@H](C)C[C@H](N(C)C)[C@H]2O)[C@](C)(OC)C[C@@H](C)C(=O)[C@H](C)[C@H]2N(CCCCn3cc(-c4cccc(N)c4)nn3)C(=O)O[C@]12C [Form II, solithromycin]
